Data reported in PMC9023165, “Antioxidant, Enzyme Inhibitory, and Molecular Docking Approaches to the Antidiabetic Potentials of Bioactive Compounds from Persicaria hydropiper L” (Evidence-based Complementary and Alternative Medicine : eCAM, 2022).
In brackets after ≈: the same amount, converted by molar mass. Where two headings read alike, the source gives them in different places.

Assays:
[1] = biological target: T1, α-amylase enzyme (Sus scrofa, UniProt P00690); assay: α-amylase inhibition assay; type: biochemical; conditions: Mean ± SEM
T1 sequence (P00690 16-511): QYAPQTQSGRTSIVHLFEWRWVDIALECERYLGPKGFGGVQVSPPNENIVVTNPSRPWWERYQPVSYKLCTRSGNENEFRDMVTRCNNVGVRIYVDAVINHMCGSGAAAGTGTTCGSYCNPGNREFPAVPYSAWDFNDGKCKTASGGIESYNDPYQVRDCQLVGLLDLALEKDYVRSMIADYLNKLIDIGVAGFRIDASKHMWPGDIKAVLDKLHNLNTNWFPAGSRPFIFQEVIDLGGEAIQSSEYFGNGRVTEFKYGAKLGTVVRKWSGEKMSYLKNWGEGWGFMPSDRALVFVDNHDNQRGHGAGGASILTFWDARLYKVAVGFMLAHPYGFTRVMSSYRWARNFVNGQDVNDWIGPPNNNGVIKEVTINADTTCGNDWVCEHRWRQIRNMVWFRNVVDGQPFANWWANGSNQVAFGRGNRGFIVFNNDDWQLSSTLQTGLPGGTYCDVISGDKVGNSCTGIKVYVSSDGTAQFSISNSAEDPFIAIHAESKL
Protocol: Using this assay, a previously reported protocol was followed. […] Subsequently, 100 µL of 0.5 mg·mL^−1α-amylase solution was added to the mixture and again incubated for 10 min at 25°C. Reaction was stopped via the addition of 200 µL of dinitrosalicylic acid was added and incubated for an additional 5 min in boiling water bath and allowed to cool again. Finally, 50 µL solutions was transferred to 96-well microplate reader and further diluted to 200 µL via the addition of distilled water. Absorbencies were recorded at 540 nm and percent inhibitions were calculated using the equation(4) % Inhibition=1−Δ A Samples/Δ A Control×100.

[2] = biological target: α-glucosidase enzyme (Saccharomyces cerevisiae, UniProt P53341); assay: α-glucosidase inhibition assay; type: biochemical
α-glucosidase enzyme, sequence (P53341 whole entry): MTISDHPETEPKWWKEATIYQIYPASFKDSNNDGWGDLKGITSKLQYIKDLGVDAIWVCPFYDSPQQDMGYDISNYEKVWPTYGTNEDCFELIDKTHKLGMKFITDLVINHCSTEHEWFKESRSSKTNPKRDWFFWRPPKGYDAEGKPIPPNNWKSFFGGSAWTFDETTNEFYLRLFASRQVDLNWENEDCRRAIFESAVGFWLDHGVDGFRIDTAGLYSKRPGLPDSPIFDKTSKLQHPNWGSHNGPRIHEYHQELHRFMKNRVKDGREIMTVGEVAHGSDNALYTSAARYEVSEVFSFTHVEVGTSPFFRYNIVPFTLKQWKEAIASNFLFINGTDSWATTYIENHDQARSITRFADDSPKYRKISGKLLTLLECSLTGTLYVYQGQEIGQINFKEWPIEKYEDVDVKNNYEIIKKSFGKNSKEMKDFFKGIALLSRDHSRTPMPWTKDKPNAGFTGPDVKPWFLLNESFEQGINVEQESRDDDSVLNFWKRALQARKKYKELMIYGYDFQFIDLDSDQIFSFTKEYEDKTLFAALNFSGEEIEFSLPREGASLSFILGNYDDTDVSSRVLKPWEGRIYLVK
Protocol: For α-glucosidase inhibition assay, 50 µL solution containing 0.5 U·mL^−1 was added to 50 µL phosphate buffer (6.8 pH) and was added to various concentrations of test samples. The resultant mixture was properly mixed and stored at 37°C for fifteen min. After incubation, 100 µL (3 mM) pNPG solution was added to it. […] Absorption was measured at 405 nm using 96-well microplate reader. Absorption of mixture without addition of test samples was used as control and without substrate was used as blank. Percent inhibitions were calculated using the formula(3) % Inhibition=1−absorbance of sample−absorbance of blank/absorbance of control×100.

[3] = DPPH antiradicals assay
Protocol: DPPH antiradicals study was conducted in accordance with our previously published protocol. Initially, 0.1% methanolic-DPPH solution was made and its 100 µL was mixed with same volume (100 µL) of test samples in 96-well plates, followed by incubation for about thirty min in a dark place 25 ± 3°C. […] Percent scavenging was estimated as follows:(1) % scavenging=A0−A1/A0×100.

[4] = ABTS antiradicals assay
Protocol: ABTS antiradicals' study was performed following our earlier reported protocol. For preparation of ABTS solution, 192 mg of ABTS salt was mixed in distilled water with subsequent transfer to fifty-milliliter flask and volume adjustments. Thereafter, 1 mL of the previous solution was added to 17 µL of 140 mM potassium persulphate and the mixture was left in the dark for 24 hours. Subsequently, 1 mL of the reaction mixture was diluted to 50 mL using methanol to obtain the final ABTS dilution used in the assay. Consequently, 190-microliter ABTS solution was added to 10 µL sample solutions and in 96-well plates and were incubated for 2 hrs in dark place at room temperature. After the incubation, decline in color intensity of ABTS was measured at 734 nm via microplate reader. […] Percent ABTS scavenging was determined using equation:(2) %ABTS scavenging=Control absorbance−Sample absorbance/Control absorbance×100.

Compound | IC50 DPPH scavenging [3] [µg/mL] | IC50 against ABTS radicals [4] [µg/mL] | % scavenging effect against DPPH radicals ([3]; 31.25 µg·mL^−1) [%] | % scavenging effect against DPPH radicals ([3]; 62.50 µg·mL^−1) [%] | % scavenging effect against DPPH radicals ([3]; 125 µg·mL^−1) [%] | % scavenging effect against DPPH radicals ([3]; 250 µg·mL^−1) [%] | % scavenging effect against DPPH radicals ([3]; 500 µg·mL^−1) [%] | % scavenging effect against DPPH radicals ([3]; 1000 µg·mL^−1) [%] | % inhibition against ABTS radicals ([4]; 1000 µg·mL^−1) [%] | further results
C[C@H]1O[C@H](O[C@H]2[C@H](O)[C@@H](O)[C@@H](O[C@H]3[C@H](O)[C@@H](O)C(O)O[C@@H]3CO)O[C@@H]2CO)[C@H](O)[C@@H](O)[C@@H]1N[C@H]1C=C(CO)[C@@H](O)[C@H](O)[C@H]1O (stereo partly drawn) [Acarbose] |  |  |  |  |  |  |  |  |  | α-Amylase Inhibition assay % enzyme inhibition ([1]; 62.50 µg·mL^−1): 59.36 ± 0.57%; α-Amylase Inhibition assay % enzyme inhibition ([1]; 125 µg·mL^−1): 65.48 ± 0.74%; α-Amylase Inhibition assay % enzyme inhibition ([1]; 250 µg·mL^−1): 73.62 ± 0.40%; α-Amylase Inhibition assay % enzyme inhibition ([1]; 500 µg·mL^−1): 78.60 ± 0.46%; α-Amylase Inhibition assay % enzyme inhibition ([1]; 1000 µg·mL^−1): 85.72 ± 0.66%; α-Glucosidase inhibition assay % enzyme inhibition [2]: 89.42 ± 0.55 77.52 ± 0.62 71. 36 ± 0.49 62.39 ± 0.49 55.47 ± 0.52%
CCC(/C=C/C(C)C1CCC2C3CC=C4CC(O)CCC4(C)C3CCC12C)C(C)C (stereo not drawn) [Ph-2, (E)-17-(5-ethyl-6-methylhept-3-en-2-yl)-10,13-dimethyl-2,3,4,7,8,9,10,11,12,13,14,15,16,17-tetradecahydro-1H-cyclopenta[a]phenanthren-3-ol] | 200 (≈ 485 µM) | 160 (≈ 388 µM) | 11.83 | 21.33 | 34.16 | 59.66 | 68 | 79.33 | 80.63 | % inhibition against ABTS radicals ([4]; 31.25 µg·mL^−1): 17.44%; % inhibition against ABTS radicals ([4]; 62.5 µg·mL^−1): 27.88%; % inhibition against ABTS radicals ([4]; 125 µg·mL^−1): 42.89%; % inhibition against ABTS radicals ([4]; 250 µg·mL^−1): 60.56%; % inhibition against ABTS radicals ([4]; 500 µg·mL^−1): 72.68%
CC(=O)OC1COC(=O)C1C (stereo not drawn) [Ph-3, 4-methyl-5-oxo-tetrahydrofuran-3-yl acetate] | 550 | 320 | 9.2 | 18.5 | 29.66 | 33.33 | 42 | 56 | 67.16 | 
O=C1O[C@H]([C@@H](O)CO)C(O)=C1O [ascorbic acid, reference compound] | 40 (≈ 227 µM) |  | 45 | 56.83 | 62.33 | 72.85 | 83.33 | 91.80 |  | 

Second part, led by results:

IC50 DPPH scavenging [3] [µg/mL] | IC50 against ABTS radicals [4] [µg/mL] | Compound | % scavenging effect against DPPH radicals ([3]; 31.25 µg·mL^−1) [%] | % scavenging effect against DPPH radicals ([3]; 62.50 µg·mL^−1) [%] | % scavenging effect against DPPH radicals ([3]; 125 µg·mL^−1) [%] | % scavenging effect against DPPH radicals ([3]; 250 µg·mL^−1) [%] | % scavenging effect against DPPH radicals ([3]; 500 µg·mL^−1) [%] | % scavenging effect against DPPH radicals ([3]; 1000 µg·mL^−1) [%] | % inhibition against ABTS radicals ([4]; 1000 µg·mL^−1) [%] | further results
650 (≈ 3570 µM) | 610 (≈ 3350 µM) | COC(=O)c1ccc(O)c(OC)c1 [Ph-4, methyl 4-hydroxy-3-methoxybenzoate] | 7.6 | 12.06 | 19.85 | 27.48 | 48.73 | 60.26 | 53.66 | 
390 (≈ 1600 µM) | 350 (≈ 1430 µM) | CCOc1cc(C(C)=O)c2cc(OC)ccc2c1 [Ph-5, 1-(3-ethoxy-7-methoxynaphthalen-1-yl)ethanone] |  |  |  |  |  | 58.33 | 69.16 | IC50 against ABTS radicals ([4]; in Figure 3): 390 µg/mL (≈ 1600 µM)
910 (≈ 3990 µM) | 550 (≈ 2410 µM) | COc1cc(/C=C/c2ccccc2)oc(=O)c1 [Ph-6, (E)-4-methoxy-6-styryl-2H-pyran-2-one] |  |  |  |  |  | 44 | 61 | 
